Experiments:
[1] = biological target: T1, androgen receptor (AR) (Homo sapiens, UniProt P10275, T878A); experiment: AR degradation in LNCaP cells by Western blot; assay type: cell-based; conditions: 0.125 to 0.5 μM
T1 construct: The study of targeted protein degradation by ARV-825 and SARD279 were carried out using similar protocols; host or cells: LNCaP
T1 sequence (P10275 1-920 T878A): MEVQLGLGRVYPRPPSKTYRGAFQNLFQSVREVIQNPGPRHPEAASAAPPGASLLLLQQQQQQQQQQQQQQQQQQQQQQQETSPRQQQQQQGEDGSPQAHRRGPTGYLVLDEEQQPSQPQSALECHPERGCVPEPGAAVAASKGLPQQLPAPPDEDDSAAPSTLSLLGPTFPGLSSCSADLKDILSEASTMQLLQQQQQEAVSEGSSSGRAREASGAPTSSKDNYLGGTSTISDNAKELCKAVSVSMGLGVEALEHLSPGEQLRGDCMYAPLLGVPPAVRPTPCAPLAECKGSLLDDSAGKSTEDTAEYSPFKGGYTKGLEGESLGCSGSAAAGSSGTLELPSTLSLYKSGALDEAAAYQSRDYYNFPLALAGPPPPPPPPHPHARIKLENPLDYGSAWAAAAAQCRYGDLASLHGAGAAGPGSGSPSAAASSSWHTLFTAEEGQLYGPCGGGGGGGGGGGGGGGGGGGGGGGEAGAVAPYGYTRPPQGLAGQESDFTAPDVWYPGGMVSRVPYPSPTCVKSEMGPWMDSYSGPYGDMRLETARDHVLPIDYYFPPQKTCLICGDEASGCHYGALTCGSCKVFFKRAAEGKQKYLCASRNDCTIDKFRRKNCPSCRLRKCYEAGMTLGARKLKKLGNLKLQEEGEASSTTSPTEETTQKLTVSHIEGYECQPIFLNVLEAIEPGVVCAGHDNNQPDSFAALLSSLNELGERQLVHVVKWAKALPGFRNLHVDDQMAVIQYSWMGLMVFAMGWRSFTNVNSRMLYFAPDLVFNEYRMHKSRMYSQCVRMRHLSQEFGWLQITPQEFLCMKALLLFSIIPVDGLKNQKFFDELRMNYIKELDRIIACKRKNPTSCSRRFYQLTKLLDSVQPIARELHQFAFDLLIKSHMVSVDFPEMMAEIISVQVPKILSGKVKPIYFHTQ

[2] = biological target: T2, BRD4 (Homo sapiens, UniProt O60885); experiment: BRD4 degradation in HeLa cells by Western blot; assay type: cell-based
T2 construct: HeLa cells, which express BRD4 at high levels, were selected as a model cell line; host or cells: HeLa
Protocol: 80-O14B LNP was formulated by directly dissolving the lipidoid into 25 mM sodium acetate solution (pH=5.5). 80-O14B LNP was added into the solution with the final concentration of 5 μg/mL and the solution was incubated at room temperature for another 15 min before administration. Pre-fused ARV-825 or SARD279 were prepared through the similar route.
Generally, Western blots was carried out on the Invitrogen Novex SureLock Mini-Cell system. Supplies for the system were bought from Invitrogen (Carlsbad, CA, USA) […] sample was loaded onto 4-12% bis-tris protein gel and the gel was run with a stable voltage of 120 V for 80 min. Then the gel was cut according to the protein ladder and transferred to PVDF membrane with a stable current of 250 mA for 3 h. The membrane was blocked by 5% skimmed milk for 1 h at room temperature and then incubated with primary antibody overnight. After 3 cycles of washing by TBST (tris-buffered saline, 0.1% tween 20), the membrane was incubated with secondary antibody for another 1 h and then washed by TBST for 3 times. The final membrane was then imaged using enhanced chemiluminescence (ECL) substrate.
1×10^6 HeLa cells were cultured in 6 well plate for 24 h before administration. […] After 24 h incubation, the proteins were isolated from HeLa cells using the radio-immunoprecipitation assay (RIPA) lysis buffer and quantitated by bicinchoninic acid assay (BCA assay). Then the proteins were diluted to the sample concentration using NuPAGE LDS sample buffer (Invitrogen, Carlsbad, CA, USA) and denatured at 95° C. for 5 min. The study of targeted protein degradation by ARV-825 and SARD279 were carried out using similar protocols.

Structure (SMILES)	AR degradation [1]	BRD4 levels remained ([2]; 24 h, 25 and 50 nM)	BRD4 degradation, time-dependent ([2]; after 8 h)	BRD4 degradation, time-dependent ([2]; after 24 h)	BRD4 degradation, time-dependent ([2]; first 6 h)
CC1(C)C(=O)N(c2ccc(C#N)c(C(F)(F)F)c2)C(=S)N1CCCC(=O)NCCOCCOC(=O)CC12CC3CC(CC(C3)C1)C2 [SARD279]	no AR degradation	–	–	–	–
Cc1ncsc1-c1ccc([C@H](C)NC(=O)[C@@H]2C[C@@H](O)CN2C(=O)[C@@H](NC(=O)COCCCOCCNC(=O)C[C@@H]2N=C(c3ccc(Cl)cc3)c3c(sc(C)c3C)-n3c(C)nnc32)C(C)(C)C)cc1 [ARV-771]	–	more than 80%	Small amounts of degradation	total degradation	no significant degradation

— US20230414723A1, “ENHANCED HYT-INDUCED PROTEIN DEGRADATION USING LIPID NANOPARTICLE DELIVERY” (Trustees of Tufts College, priority 2020, published 2023)
